Measurements published in patent publication US4279926A, “Method of relieving pain and treating inflammatory conditions in warm-blooded animals” (priority 1974, dated 1981).
Counter-ions that a name gives are not always drawn. One block for each compound: values may come before it.

Experiments:
[1] = tested on: pain threshold in the inflamed paw (carrageenin oedema); assay: Pain threshold under pressure of the inflamed (carrageenin) rat paw (analgesic action); conditions: for Pain threshold - carrageenin oedema: Table 3
Description: At intervals after the treatment, the size of the treated paw and its sensitivity to pain under pressure were evaluated.

gastro-intestinal mucosa = conditions: known from the art; cited from earlier work
Solubility = assay type: physicochemical
pH of aqueous solution = assay type: physicochemical
[2] = tested on: carrageenin oedema, inflamed paw; assay: Carrageenin oedema of the rat paw (anti-inflammatory action, paw size/volume); assay type: in vivo, male Wistar rats; conditions: oral, Tables 1, 2 and 3
clinical = conditions: human, in vivo, po, Human blood level, single oral dose 500 mg D,L-lysine salt (Table 5) or equivalent 300 mg sodium salt (Table 6), serum, as free acid
Description: The blood levels were then determined after 0.5, 1, 1.5, 2, 3, 4 and 5 hours.

SMILES: CC(C)Cc1ccc(C(C)C(=O)O)cc1 (stereo not drawn) [Ibuprofen]
Pain threshold - carrageenin oedema ([1]; 50 mg/kg p.o. (lysine salt: 30 as active substance), 0 hrs, control 101.7 ± 3.19, 50 mg/kg): 101.0 ± 2.85 g | Pain threshold - carrageenin oedema ([1]; 50 mg/kg p.o. (lysine salt: 30 as active substance), 3 hrs, control 52.7 ± 2.00, **p = 0.01, 50 mg/kg): 85.7 ± 4.05 g | Pain threshold - carrageenin oedema ([1]; 50 mg/kg p.o. (lysine salt: 30 as active substance), 5 hrs, control 51.3 ± 2.15, **p = 0.01, 50 mg/kg): 70.7 ± 3.45 g | Pain threshold - carrageenin oedema ([1]; 100 mg/kg p.o. (lysine salt: 60 as active substance), 0 hrs, control 101.7 ± 3.19, 100 mg/kg): 105.3 ± 3.10 g | Pain threshold - carrageenin oedema ([1]; 100 mg/kg p.o. (lysine salt: 60 as active substance), 3 hrs, control 52.7 ± 2.00, **p = 0.01, 100 mg/kg): 104.3 ± 3.51 g | Pain threshold - carrageenin oedema ([1]; 100 mg/kg p.o. (lysine salt: 60 as active substance), 5 hrs, control 51.3 ± 2.15, **p = 0.01, 100 mg/kg): 80.3 ± 5.66 g | Pain threshold - carrageenin oedema ([1]; 200 mg/kg p.o. (lysine salt: 120 as active substance), 0 hrs, control 101.7 ± 3.19, 200 mg/kg): 101.0 ± 3.21 g | Pain threshold - carrageenin oedema ([1]; 200 mg/kg p.o. (lysine salt: 120 as active substance), 3 hrs, control 52.7 ± 2.00, **p = 0.01, 200 mg/kg): 119.7 ± 3.50 g | Pain threshold - carrageenin oedema ([1]; 200 mg/kg p.o. (lysine salt: 120 as active substance), 5 hrs, control 51.3 ± 2.15, **p = 0.01, 200 mg/kg): 85.7 ± 4.70 g

SMILES: COc1ccc2c(c1)c(CC(=O)O)c(C)n2C(=O)c1ccc(Cl)cc1 [indomethacine]
Undesired side-effects (gastro-intestinal intolerance, ulceration) compared with phenyl-alkanoic acids (gastro-intestinal mucosa): also show these undesired side-effects in an even more pronounced form

Solubility in water (Solubility): moderately soluble in water
SMILES: C=CCOc1ccc(CC(=O)O)cc1Cl [Example 10, arginine salt of 2-(3-chloro-4-allyloxyphenyl)-acetic acid]

SMILES: CC(C)Cc1ccc(C(C)C(=O)O)cc1 (racemic) [Example 8, D,L-arginine salt of 2-(4-isobutylphenyl)-propionic acid]
Solubility in water (Solubility): moderately soluble in water | pH of aqueous solution (pH of aqueous solution): pH close to neutrality

Solubility in water (Solubility): moderately soluble in water
SMILES: CC(C(=O)O)c1cccc(Oc2ccccc2)c1 (stereo not drawn) [Example 12, arginine salt of 2-(3-phenoxy-phenyl)-propionic acid]

Solubility in water (Solubility): soluble in water
SMILES: CC(C)Cc1ccc(CC(=O)O)cc1 [Example 4, lysine salt of 2-(4-isobutyl-phenyl)-acetic acid]

SMILES: CC(C)Cc1ccc(C(C)C(=O)O)cc1 (stereo not drawn) [Example 9]
Solubility in water (Solubility): analogous to those of the product obtained in Example 8 | pH of aqueous solution (pH of aqueous solution): analogous to those of the product obtained in Example 8

SMILES: CC(C)Cc1ccc(C(C)C(=O)O)cc1 (stereo not drawn) [Example 3]
Anti-inflammatory and analgesic action compared with free acid and phenyl-butazone [2]: as active as or more active than the equivalent dose of the corresponding free acid and is as effective as a double dose of phenyl-butazone | Analgesic action, intravenous, compared with free acid and phenyl-butazone ([1]; i.v., doses of the order of 10 times less, Table 4): clearly more active and quicker acting than both the free acid and phenyl-butazone

SMILES: CC(C)Cc1ccc(C(C)C(=O)[O-])cc1.[Na+] (stereo not drawn)
concentration at 0.5 h (clinical; subject B): 10500 ng/mL | concentration at 0.5 h (clinical; subject C): 3800 ng/mL | concentration at 0.5 h (clinical; subject D): 5500 ng/mL | concentration at 0.5 h (clinical; subject E): 3300 ng/mL | concentration at 1 h (clinical; subject B): 16600 ng/mL | concentration at 1 h (clinical; subject C): 4500 ng/mL | concentration at 1 h (clinical; subject D): 6000 ng/mL | concentration at 1 h (clinical; subject E): 9800 ng/mL | concentration at 1.5 h (clinical; subject B): 11000 ng/mL | concentration at 1.5 h (clinical; subject C): 6000 ng/mL | concentration at 1.5 h (clinical; subject D): 7000 ng/mL | concentration at 1.5 h (clinical; subject E): 8700 ng/mL | concentration at 2 h (clinical; subject A): 900 ng/mL | concentration at 2 h (clinical; subject B): 10300 ng/mL | concentration at 2 h (clinical; subject C): 8700 ng/mL | concentration at 2 h (clinical; subject D): 16300 ng/mL | concentration at 2 h (clinical; subject E): 7900 ng/mL | concentration at 3 h (clinical; subject A): 1300 ng/mL | concentration at 3 h (clinical; subject B): 3000 ng/mL | concentration at 3 h (clinical; subject C): 8700 ng/mL | concentration at 3 h (clinical; subject D): 13600 ng/mL | concentration at 3 h (clinical; subject E): 9600 ng/mL | concentration at 4 h (clinical; subject A): 4200 ng/mL | concentration at 4 h (clinical; subject B): 2700 ng/mL | concentration at 4 h (clinical; subject C): 9600 ng/mL | concentration at 4 h (clinical; subject D): 7300 ng/mL | concentration at 4 h (clinical; subject E): 7000 ng/mL | concentration at 5 h (clinical; subject A): 6300 ng/mL | concentration at 5 h (clinical; subject B): 1400 ng/mL | concentration at 5 h (clinical; subject C): 4300 ng/mL | concentration at 5 h (clinical; subject D): 6900 ng/mL | concentration at 5 h (clinical; subject E): 5300 ng/mL | concentration at 0.5 h (clinical; mean): 8300 ng/mL | concentration at 1 h (clinical; mean): 13600 ng/mL | concentration at 1.5 h (clinical; mean): 11600 ng/mL | concentration at 2 h (clinical; mean): 12700 ng/mL | concentration at 3 h (clinical; mean): 10800 ng/mL | concentration at 4 h (clinical; mean): 7800 ng/mL | concentration at 5 h (clinical; mean): 5400 ng/mL

Solubility in water (Solubility): moderately soluble in water
SMILES: CC(C(=O)O)c1ccc(C2CCCCC2)cc1 (stereo not drawn) [Example 11, arginine salt of 2-(4-cyclohexyl-phenyl)-propionic acid]

Solubility in water (Solubility): water-soluble
SMILES: O=C(O)Cc1ccccc1Oc1ccc(Cl)cc1Cl [Example 6, lysine salt of 2-(2,4-dichlorophenoxy)-phenyl-acetic acid]
